Source: the NIST ThermoML archive (doi:10.1021/je060163o)
Numbers after ± are expanded uncertainties.

What was measured:
[1] = Liquid; for vapor or sublimation pressure: Twin ebulliometer
[2] = refractive index (Na D-line) (dimensionless); conditions: 298.15 K; 101.33 kPa; Liquid; Standard Abbe refractometry

mass density ([1]; 298.15 K, 101.33 kPa) [kg/m3] | refractive index [2] | vapor or sublimation pressure ([1]; 292.33 K) [kPa] | vapor or sublimation pressure ([1]; 303.83 K) [kPa] | vapor or sublimation pressure ([1]; 311.14 K) [kPa] | vapor or sublimation pressure ([1]; 317.9 K) [kPa] | vapor or sublimation pressure ([1]; 323.09 K) [kPa] | vapor or sublimation pressure ([1]; 326.8 K) [kPa] | vapor or sublimation pressure ([1]; 330.56 K) [kPa] | vapor or sublimation pressure ([1]; 333.94 K) [kPa] | vapor or sublimation pressure ([1]; 337.18 K) [kPa] | vapor or sublimation pressure ([1]; 339.97 K) [kPa] | vapor or sublimation pressure ([1]; 342.3 K) [kPa] | Structure (SMILES)
786.59 ± 0.62 | 1.3266 ± 0.0004 |  |  |  |  |  |  |  |  |  |  |  | CO [methanol]
 | 1.3596 ± 0.0004 | 5.59 ± 0.15 | 10.86 ± 0.15 | 16.15 ± 0.16 | 22.84 ± 0.17 | 29.41 ± 0.18 | 35.11 ± 0.19 | 41.76 ± 0.21 | 48.61 ± 0.22 | 56.06 ± 0.24 | 63.2 ± 0.26 | 69.73 ± 0.27 | CCO [ethanol]
